42 molecules from patent US20260258050A1, “IMMUNOMODULATOR” (HITGEN INC., priority 2023, published 2026) can be followed below.

Molecules are shown by their SMILES.

This assay has as its target T1, Human IL-17A (Homo sapiens, UniProt Q16552).
T1 sequence (Q16552 20-155 limits assumed): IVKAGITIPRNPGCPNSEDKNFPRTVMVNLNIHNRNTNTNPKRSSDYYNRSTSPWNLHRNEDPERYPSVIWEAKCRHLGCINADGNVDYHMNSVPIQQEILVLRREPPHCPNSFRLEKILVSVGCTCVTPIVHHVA
Nature of the assay: IL-17A enzyme-linked immunosorbent assay (competitive ELISA, IL-17A/IL-17Ra receptor-ligand binding). The following applies: human IL-17A coated plate, human IL-17Ra, read-out: IC50, inhibitory activity of compounds on human IL-17A. Also on record: purchased Sino Biological Inc. 12047-H07B. The gist of the method: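 Competitive ELISA with plates coated with human IL-17A at 0.2 μg/ml, blocked with 5% skim milk. Compound pre-incubated with IL-17A 10 min at 25 °C, then 16 nM IL-17Ra stock added for 30 min. Bound receptor detected by anti-Fc HRP/TMB, A450. IC50 from variable-slope fit of blank-corrected residual activity.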
For orientation: ELISA stands for enzyme-linked immunosorbent assay.

As to `CCOCCn1nccc1C(=O)N[C@H](C(=O)Nc1cc2c(cc1F)-c1c(n[nH]c1C)CCOC2)C(C1CC1)C1CC1` [compound 100], the IC50 was at most 50 nM.

Consider `Cc1[nH]nc2c1-c1cc(F)c(NC(=O)[C@@H](NC(=O)c3ccnn3C[C@@H]3C[C@H]3F)C(C3CC3)C3CC3)cc1COCC2` [compound 101], for which the IC50 is at most 50 nM. The same measure for `Cc1[nH]nc2c1-c1cc(F)c(NC(=O)[C@@H](NC(=O)c3ccnn3CCOC3CC3)C(C3CC3)C3CC3)cc1COCC2` [compound 102]: at most 50 nM. The same measure for `Cc1[nH]nc2c1-c1cc(F)c(NC(=O)[C@@H](NC(=O)c3ccnn3CCOCC(F)(F)F)C(C3CC3)C3CC3)cc1COCC2` [compound 104]: at most 50 nM; for `Cc1[nH]nc2c1-c1cc(F)c(NC(=O)[C@@H](NC(=O)c3cnnn3CCOC(F)F)C(C3CC3)C3CC3)cc1COCC2` [compound 108]: at most 50 nM. The same measure for `Cc1[nH]nc2c1-c1cc(F)c(NC(=O)[C@@H](NC(=O)c3ccnn3CCOC(C)(C)C)C(C3CC3)C3CC3)cc1COCC2` [compound 113]: at most 50 nM; for `Cc1[nH]nc2c1-c1cc(F)c(NC(=O)[C@@H](NC(=O)c3ccnn3CC3(C#N)CC3)C(C3CC3)C3CC3)cc1COCC2` [compound 114]: at most 50 nM; for `Cc1[nH]nc2c1-c1cc(F)c(NC(=O)[C@@H](NC(=O)c3ccnn3CC3COC3)C(C3CC3)C3CC3)cc1COCC2` [compound 115]: at most 50 nM. In the case of `Cc1[nH]nc2c1-c1cnc(NC(=O)[C@@H](NC(=O)c3ccnn3CCCF)C(C3CC3)C3CC3)cc1COCC2` [compound 124], the IC50 was at most 50 nM. Consider `Cc1[nH]nc2c1-c1cc(F)c(NC(=O)[C@@H](NC(=O)c3ccnn3C(C)C)C(C3CC3)C3CC3)cc1CN(CC1CC1)CC2` [compound 166], for which the IC50 is at most 50 nM. In the case of `Cc1[nH]nc2c1-c1cc(F)c(NC(=O)[C@@H](NC(=O)c3ccnn3C(C)C)C(C3CC3)C3CC3)cc1CN(C1CCOCC1)C(=O)C2` [compound 167] it was at most 50 nM; in that of `Cc1[nH]nc2c1-c1cc(F)c(NC(=O)[C@@H](NC(=O)c3ccnn3C(C)C)C(C3CC3)C3CC3)cc1CN(C1CCC(F)(F)CC1)C(=O)C2` [compound 168], at most 50 nM; in that of `Cc1[nH]nc2c1-c1cc(F)c(NC(=O)[C@@H](NC(=O)c3ccnn3C(C)C)C(C3CC3)C3CC3)cc1CN(C1CC(F)(F)C1)C(=O)C2` [compound 169], at most 50 nM.

On to `Cc1[nH]nc2c1-c1cc(F)c(NC(=O)[C@@H](NC(=O)c3ccnn3C(C)C)C(C3CC3)C3CC3)cc1CN(C1CCC1)C(=O)C2` [compound 170], for which the IC50 is at most 50 nM. The same measure for `Cc1[nH]nc2c1-c1cc(F)c(NC(=O)[C@@H](NC(=O)c3ccnn3C(C)C)C(C3CC3)C3CC3)cc1CN(C1CCOCC1)CC2` [compound 174]: at most 50 nM; for `Cc1[nH]nc2c1-c1cc(F)c(NC(=O)[C@@H](NC(=O)c3ccnn3C(C)C)C(C3CC3)C3CC3)cc1CN(C1CC(F)(F)C1)CC2` [compound 176]: at most 50 nM; for `Cc1[nH]nc2c1-c1cnc(NC(=O)[C@@H](NC(=O)c3ccnn3C(C)C)C(C3CC3)C3CC3)cc1CN(Cc1ccccc1)C(=O)C2` [compound 182]: at most 50 nM.

In the case of `Cc1[nH]nc2c1-c1cnc(NC(=O)[C@@H](NC(=O)c3ccnn3C(C)C)C(C3CC3)C3CC3)cc1CN(C1CC1)C(=O)C2` [compound 191], the IC50 was at most 50 nM. Take `Cc1[nH]nc2c1-c1cnc(NC(=O)[C@@H](NC(=O)c3ccnn3C(C)C)C(C3CC3)C3CC3)cc1CN(CC(F)F)C(=O)C2` [compound 192]: the IC50 was at most 50 nM. In the case of `Cc1[nH]nc2c1-c1cnc(NC(=O)[C@@H](NC(=O)c3ccnn3C(C)C)C(C3CC3)C3CC3)cc1CN(CC(C)(F)F)C(=O)C2` [compound 193] it was at most 50 nM. In the case of `Cc1[nH]nc2c1-c1cnc(NC(=O)[C@@H](NC(=O)c3ccnn3C(C)C)C(C3CC3)C3CC3)cc1CN(C1CC(F)(F)C1)C(=O)C2` [compound 194] it was at most 50 nM.

`Cc1[nH]nc2c1-c1cnc(NC(=O)[C@@H](NC(=O)c3ccnn3C(C)C)C(C3CC3)C3CC3)cc1CN(C(C)C)C(=O)C2` [compound 195]: the IC50 is at most 50 nM. The same measure for `CC(=O)N1CCc2n[nH]c(C)c2-c2cnc(NC(=O)[C@@H](NC(=O)c3ccnn3C(C)C)C(C3CC3)C3CC3)cc2C1` [compound 196]: at most 50 nM. In the case of `Cc1[nH]nc2c1-c1cnc(NC(=O)[C@@H](NC(=O)c3ccnn3C(C)C)C(C3CC3)C3CC3)cc1CN(C1CC1)CC2` [compound 198] it was at most 50 nM; in that of `Cc1[nH]nc2c1-c1cnc(NC(=O)[C@@H](NC(=O)c3ccnn3C(C)C)C(C3CC3)C3CC3)cc1CN(CC(C)(F)F)CC2` [compound 199], at most 50 nM. In the case of `Cc1[nH]nc2c1-c1cnc(NC(=O)[C@@H](NC(=O)c3ccnn3C(C)C)C(C3CC3)C3CC3)cc1CN(C(C)C)CC2` [compound 200] it was at most 50 nM. As for `Cc1[nH]nc2c1-c1cnc(NC(=O)[C@@H](NC(=O)c3ccnn3C(C)C)C(C3CC3)C3CC3)cc1CN(C1CCC1)CC2` [compound 201], the IC50 was at most 50 nM. In the case of `Cc1[nH]nc2c1-c1cnc(NC(=O)[C@@H](NC(=O)c3ccnn3C(C)C)C(C3CC3)C3CC3)cc1CN(CC(F)F)CC2` [compound 202] it was at most 50 nM; in that of `Cc1[nH]nc2c1-c1cnc(NC(=O)[C@@H](NC(=O)c3conc3C(C)C)C(C3CC3)C3CC3)cc1CN(C1CC1)CC2` [compound 214], at most 50 nM; in that of `Cc1[nH]nc2c1-c1cnc(NC(=O)[C@@H](NC(=O)c3conc3C3CC3)C(C3CC3)C3CC3)cc1CN(C1CC1)CC2` [compound 215], at most 50 nM. In the case of `CCc1nocc1C(=O)N[C@H](C(=O)Nc1cc2c(cn1)-c1c(n[nH]c1C)CCN(C1CC1)C2)C(C1CC1)C1CC1` [compound 216] it was at most 50 nM. As to `CCn1nccc1C(=O)N[C@H](C(=O)Nc1cc2c(cn1)-c1c(n[nH]c1C)CCN(C1CC1)C2)C(C1CC1)C1CC1` [compound 217], the IC50 was at most 50 nM. For `Cc1[nH]nc2c1-c1cc(F)c(NC(=O)[C@@H](NC(=O)c3ccnn3CCCF)C(C3CC3)C3CC3)cc1CN(C1CC1)CC2` [compound 218], the IC50 is at most 50 nM. In the case of `Cc1[nH]nc2c1-c1cc(F)c(NC(=O)[C@@H](NC(=O)/C(F)=C\C(C)C)C(C3CC3)C3CC3)cc1COCC2` [compound 229] it was at most 50 nM. In the case of `Cc1[nH]nc2c1-c1cc(F)c(NC(=O)[C@@H](NC(=O)/C(F)=C\C3CC3)C(C3CC3)C3CC3)cc1COCC2` [compound 230] it was at most 50 nM; in that of `Cc1[nH]nc2c1-c1cnc(NC(=O)[C@@H](NC(=O)c3conc3C(C)C)C(C3CC3)C3CC3)cc1COCC2` [compound 234], at most 50 nM; in that of `Cc1[nH]nc2c1-c1cnc(NC(=O)[C@@H](NC(=O)c3ccnn3CC(F)(F)F)C(C3CC3)C3CC3)cc1COCC2` [compound 236], at most 50 nM. On to `Cc1[nH]nc2c1-c1cnc(NC(=O)[C@@H](NC(=O)c3ccnn3C3CC3)C(C3CC3)C3CC3)cc1COCC2` [compound 237], for which the IC50 was at most 50 nM. The same measure for `Cc1[nH]nc2c1-c1cnc(NC(=O)[C@@H](NC(=O)/C(F)=C\C(C)C)C(C3CC3)C3CC3)cc1COCC2` [compound 238]: at most 50 nM; for `Cc1[nH]nc2c1-c1cnc(NC(=O)[C@@H](NC(=O)/C(F)=C\C3CC3)C(C3CC3)C3CC3)cc1COCC2` [compound 239]: at most 50 nM. In the case of `CCc1nocc1C(=O)N[C@H](C(=O)Nc1cc2c(cn1)-c1c(n[nH]c1C)CCOC2)C(C1CC1)C1CC1` [compound 240] it was at most 50 nM; in that of `Cc1[nH]nc2c1-c1cnc(NC(=O)[C@@H](NC(=O)c3conc3C3CC3)C(C3CC3)C3CC3)cc1COCC2` [compound 241], at most 50 nM.

What is called IC50 is the point on the concentration scale where inhibition reaches its midpoint.
